We go through four molecules from patent EP0002058A1, “3-(2-Aminoethylthio-6-ethyl-7-oxo-1-azabicylo-(3.2.0)-hept-2-en-2-carboxylic acid, process for preparing it and compositions comprising it” (SANRAKU-OCEAN CO., LTD., priority 1977, dated 1979).

The structures appear in SMILES notation. ≈ marks a conversion by molar mass, not a printed value. Counter-ions that a name gives are not always drawn.

The test system of series [1] is Staphylococcus aureus FDA 209P. Put plainly: Minimum inhibitory concentration, broth dilution method (brain heart infusion medium). Format: cell-based. The settings on record: for MIC: Staphylococcus aureus, FDA209P, inoculum about 1 x 10^5/ml, 35°C, 20 hours. On the procedure:
(§1) The minimum inhibitory concentration was determined on various pathogenic microorganisms including a resistant strain to the N-desacetyl derivative by the broth dilution method with a brain heart infusion medium "Eiken" (Eiken Kagaku Co.). Sample solutions to be tested were prepared in a serial dilution with the medium, which were inoculated with the test microorganisms at the final cell count of about 1 x 10^5/ml and incubated at 35 °C. After 20 hours the microbial growth was examined. The minimum inhibitory concentration was determined as the lowest concentration of the sample at which no growth of the corresponding test microorganism was observed.
(In general: Dilution methods test growth across graded concentrations, often in twofold steps.)

The test system of series [2] is Klebsiella pneumoniae K-2. The description is as above. In kind it is cell-based. The settings on record: K2, inoculum about 1 x 10^5/ml, 35°C, 20 hours. On the procedure: as §1
The test system of series [3] is Staphylococcus aureus Russel. Described as above. Format: cell-based. As to conditions: inoculum about 1 x 10^5/ml, 35°C, 20 hours. As to the method:
as §1

The test system of series [4] is Comanonas terrigena B-996. In words: Bioassay of antibacterial potency (disc on agar assay plate, CCU). Format: cell-based. As to conditions: purified solid preparation. The source says: • (1) Cells of Comanonas terrigena B-996, cultivated on a nutrient agar overnight, are suspended in a nutrient broth to give a seed culture having an absorbance at […], ascribable to the cells, of 0.04. A melted agar medium consisting of 0.8% Kyokuto powdered bouillon (Kyokuto Seiyaku Kogyo) and 1% Bacto agar (Difco Labs.) is inoculated with 1% of the seed culture. Seven ml portions of the agar medium are poured into petri dishes with a diameter of 9 cm and solidified to prepare a Comamonas assay plate. • (2) Staphylococcus aureus FDA209P is cultivated overnight with shaking in a nutrient broth. The culture is diluted to 50 times with a nutrient broth to obtain a seed culture. A melted agar medium consisting of 1% Kyokuto powdered bouillon (Kyokuto Seiyaku Kogyo) and 1% Bacto agar (Difco Labs.) is inoculated with 1% of the seed culture. Seven ml portions of the agar medium are poured into petri dishes with a diameter of 9 cm and solidified to prepare a Staphylococcus assay plate. • (3) A pulp disc with a diameter of 8 mm is soaked in a sample solution and put on the assay plate mentioned above after removing an excess of the sample solution soaked by placing on filter paper. […] The diameter of the inhibitory zone is measured. TIle concentration of the test compound in the sample solution is calculated by comparing the diameter with that of the standard solution.

Series [5] has as its system pathogenic Gram-positive bacteria. Put plainly: Activity in vivo (general statement). As to conditions: mice infected with pathogenic Gram-positive bacteria.
In series [6] the test system is Staphylococcus aureus Smith. In words: Activity in vivo in mice inoculated intraperitoneally with Staphylococcus aureus Smith. As to conditions: sc, 5 x 10^5 cells/mouse intraperitoneally, injected subcutaneously immediately after the inoculation, read-out: CD50 value. More on the design: species or system male ddy mice. As to the method:
The N-desacetyl derivative was prepared on a large scale in a similar manner to the above-described and the activity in vivo was determined in mice inoculated with 5 x 10^5 cells/mouse of Staphylococcus aureus Smith intraperitoneally. The derivative was injected subcutaneously immediately after the inoculation.

On the set-up of series [7]: species or system male ddy mice. The settings on record: mouse, in vivo, ip, 500 mg/kg.
A short description of a further series: Solubility. In kind it is physicochemical.
In a further series the test system is staphylococcal bacteria. In words: Antimicrobial spectrum (general statement). In kind it is cell-based.

What is called MIC is the lowest concentration that inhibits growth of the organism. For the molecule `CO[C@@]1(NC(=O)Cc2cccs2)C(=O)N2C(C(=O)O)=C(COC(N)=O)CS[C@@H]21` [Cefoxitin, reference compound], the MIC was found to be 1.56 µg/mL (≈ 3.65 µM) in series [1], 12.5 µg/mL (≈ 29.2 µM) in series [2] and 3.13 µg/mL (≈ 7.32 µM) in series [3].
Regarding `CC[C@H]1C(=O)N2C(C(=O)OC(c3ccccc3)(c3ccccc3)c3ccccc3)=C(SCCNC(C)=O)C[C@H]12` (relative stereo) [trityl ester of antibiotic PS-5], the antibacterial potency in [4] is given as 10,800 CCU/mg.
In the case of `CC[C@H]1C(=O)N2C(C(=O)O)=C(SCCNC(C)=O)C[C@H]12` (relative stereo) [PS-5 sodium salt, reference compound], in [4], the antibacterial potency is 21,000 CCU/mg.
Turning to `CCC1C(=O)N2C(C(=O)O)=C(SCCN)CC12` (stereo not drawn) [N-desacetyl derivative], in series [5], the therapeutic effect result is “remarkable therapeutic effect”. In addition, the ED50 in series [6] came to 0.55 mg/kg. Also, the acute toxicity result in [7] is on record as “No acute toxicity”. For the same molecule, the “Solubility in acetone, ethyl acetate and benzene” value in “Solubility” (acetone, ethyl acetate and benzene) was “practically insoluble”. Also, in the series “Solubility” (water), the Solubility in water entry is given as “easily soluble”. For the same molecule, in series [1] (Staphylococcus aureus FDA 209p, times higher than antibiotic PS-5), the “inhibitory activity relative to that of the antibiotic PS-5” value is recorded as “about 10 times”. Also, the MIC in [1] turned out to be 0.008 µg/mL (≈ 0.0312 µM); in series [2], 5 µg/mL (≈ 19.5 µM); in [3], 0.063 µg/mL (≈ 0.246 µM). Further, the antimicrobial activity result with staphylococcal bacteria was “high antimicrobial activity”.
